Consider 22 compounds from the RepoRT retention time repository (doi:10.1016/j.aca.2012.07.013).

Each structure is given as a SMILES string.

This data set in a line: RP, 50 × 2.1 mm, 1.7 µm, 0.5 mL/min, estimated dead time 0.22 min; A: 98% water + 2% acetonitrile + 0.1% formic acid, pH 3; B: 2% water + 98% acetonitrile + 0.1% formic acid, pH 3; gradient (min/%B) 0/0 0.5/0 4/60 8/100 9/100 9.2/0 10/0. To be noted: stereoisomer not certain.

As for `Nc1ccc(C(F)(F)F)cc1` [4-trifluoro methylaniline], the LC retention time is 0.383 min. To `CCCCCCCCCCCCCCC(=O)OCC(O)COP(=O)([O-])OCC[N+](C)(C)C` (configuration not stated) [LPC (15:0)] belongs 4.67 min. As for `CCCCCCCCCCCCCCCC(=O)OCC(O)COP(=O)([O-])OCC[N+](C)(C)C` (configuration not stated) [LPC (16:0)], the figure is 4.98 min; as for `CCCCCCCCCCCCCCCCC(=O)OCC(O)COP(=O)([O-])OCC[N+](C)(C)C` (configuration not stated) [LPC (17:0)], 5.3 min; as for `CCCCCCCCCCCCCCCCCC(=O)OCC(O)COP(=O)([O-])OCC[N+](C)(C)C` (configuration not stated) [LPC (18:0)], 5.64 min.

Turning to `CCC=CCC=CCC=CCC=CCC=CCC=CCCC(=O)OCC(O)COP(=O)([O-])OCC[N+](C)(C)C` (configuration not stated) [LPC (22:6)], the LC retention time was 4.72 min.

For the compound `CCCCCC=CCC=CCC=CCC=CCCCC(=O)OC(CO)COP(=O)(O)OCCN` (configuration not stated) [LPE (0:0/20:4(5Z,8Z,11Z,14Z)], the LC retention time was 4.74 min. To `CCC=CCC=CCC=CCC=CCCCCCCC(=O)OC(CO)COP(=O)(O)OCCN` (configuration not stated) [LPE (0:0/20:4(8Z,11Z,14Z,17Z))] belongs 4.74 min; to `CCC=CCC=CCC=CCC=CCC=CCC=CCCC(=O)OC(CO)COP(=O)(O)OCCN` (configuration not stated) [LPE (0:0/22:6(4Z,7Z,10Z,13Z,16Z,19Z))], 4.71 min; to `CCCCCC=CCC=CCC=CCCCCCCC(=O)OCC(O)COP(=O)(O)OCCN` (configuration not stated) [LPE (20:3)], 4.71 min. To `CCC=CCC=CCC=CCC=CCCCCCCC(=O)OCC(O)COP(=O)(O)OCCN` (configuration not stated) [LPE (20:4(8Z,11Z,14Z,17Z)/0:0)] belongs 4.74 min; to `CCCCCCCCCCCCCCCCCCOCC(O)COP(=O)(O)OCC(N)C(=O)O` (configuration not stated) [PS (O-18:0/0:0)], 4.52 min; to `Oc1ccc(C(c2ccc(O)cc2)(C(F)(F)F)C(F)(F)F)cc1` [bisphenol AF], 0.397 min. To `O=c1cc2oc3ccccc3oc-2cc1=O` [dibenzo[1,4]dioxin-2,3-dione] belongs 2.57 min; to `c1ccc(CSSCc2ccccc2)cc1` [dibenzyl disulfide], 2.39 min. As to `CC(CCC(=O)NCC(=O)O)C1CCC2C3C(O)CC4CC(OS(=O)(=O)O)CCC4(C)C3CCC12C` (configuration not stated) [glycochenodeoxycholate-3-sulfate], the LC retention time was 3.38 min.

On to `CC(CCC(=O)NCC(=O)O)C1CCC2C3C(O)CC4CC(O)CCC4(C)C3CCC12C` (configuration not stated) [glycochenodeoxycholic acid (GCDCA)], for which the LC retention time was 3.78 min. `CC(CCC(=O)NCC(=O)O)C1CCC2C3C(O)CC4CC(O)CCC4(C)C3CC(O)C12C` (configuration not stated) [glycocholic acid (GCA)]: the LC retention time was 3.36 min.

In the case of `CC(CCC(=O)NCC(=O)O)C1CCC2C3CCC4CC(O)CCC4(C)C3CC(O)C12C` (configuration not stated) [glycodeoxycholic acid (GDCA)], the LC retention time was 3.78 min. To `CCCCCCCCCCCCCC=CC(O)C([NH3+])COP(=O)([O-])O` (configuration not stated) [sphingosine 1-phosphate] belongs 4.36 min; to `CC(CCC(=O)NCCS(=O)(=O)O)C1CCC2C3C(O)CC4CC(O)CCC4(C)C3CCC12C` (configuration not stated) [taurochenodeoxycholic acid (TCDCA)], 3.45 min; to `CC(CCC(=O)NCCS(=O)(=O)O)C1CCC2C3C(O)CC4CC(O)CCC4(C)C3CC(O)C12C` (configuration not stated) [taurocholic acid (TCA)], 3.08 min.
